pIC50: −log10 of the molar value. Values belong to the compound of their own block, whether it stands above or below them.
What was measured:
[1] = molecular target: T1, 3-hydroxy-3-methylglutaryl-coenzyme A reductase (Rattus norvegicus, UniProt P51639); assay: Inhibitory activity against partially purified rat liver HMG-CoA reductase in vitro; 1.8-3.7
T1 sequence (P51639 whole entry): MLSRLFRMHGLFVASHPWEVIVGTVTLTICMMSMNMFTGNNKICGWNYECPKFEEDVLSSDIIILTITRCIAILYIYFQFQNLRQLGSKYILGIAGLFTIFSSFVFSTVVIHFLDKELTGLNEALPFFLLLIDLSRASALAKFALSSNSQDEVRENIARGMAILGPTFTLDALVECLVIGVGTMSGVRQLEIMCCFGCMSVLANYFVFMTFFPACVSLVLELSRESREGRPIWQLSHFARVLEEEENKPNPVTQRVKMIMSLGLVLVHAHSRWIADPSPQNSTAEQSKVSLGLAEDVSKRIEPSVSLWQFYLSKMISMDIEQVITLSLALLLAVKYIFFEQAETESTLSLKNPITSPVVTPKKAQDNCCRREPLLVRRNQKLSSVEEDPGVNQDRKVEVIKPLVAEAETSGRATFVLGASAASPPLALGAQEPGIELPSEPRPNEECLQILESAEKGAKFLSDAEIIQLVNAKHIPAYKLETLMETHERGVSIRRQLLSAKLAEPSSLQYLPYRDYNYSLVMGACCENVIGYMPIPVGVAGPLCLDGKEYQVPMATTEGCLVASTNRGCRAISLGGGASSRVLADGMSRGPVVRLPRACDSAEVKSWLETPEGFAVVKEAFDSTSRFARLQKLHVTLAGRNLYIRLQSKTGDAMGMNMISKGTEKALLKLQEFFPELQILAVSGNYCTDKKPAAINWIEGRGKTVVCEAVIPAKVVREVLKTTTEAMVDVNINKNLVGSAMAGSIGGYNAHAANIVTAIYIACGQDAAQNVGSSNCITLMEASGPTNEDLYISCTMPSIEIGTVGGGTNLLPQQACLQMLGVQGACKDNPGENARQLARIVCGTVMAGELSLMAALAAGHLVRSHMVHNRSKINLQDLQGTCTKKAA

HepG2 [2] = assay: Tested for ability to inhibit incorporation of [14C]acetate into cholesterol in cultured human hepatoma (HEP-G2) cells; 0.15-1.7; format: functional, cell-based
[3] = molecular target: T1, 3-hydroxy-3-methylglutaryl-coenzyme A reductase; assay: Inhibitory activity against partially purified rat liver HMG-CoA reductase in vitro; 0.015-0.51
[4] = molecular target: T1, 3-hydroxy-3-methylglutaryl-coenzyme A reductase; assay: Inhibitory activity against partially purified rat liver HMG-CoA reductase in vitro; 0.021-0.036
HepG2 [5] = assay: Tested for ability to inhibit incorporation of [14C]acetate into cholesterol in cultured human hepatoma (HEP-G2) cells; 0.26-0.80; format: functional, cell-based
[6] = molecular target: T1, 3-hydroxy-3-methylglutaryl-coenzyme A reductase; assay: Inhibitory activity against partially purified rat liver HMG-CoA reductase in vitro; 0.0040-0.053
HepG2 [7] = assay: Tested for ability to inhibit incorporation of [14C]acetate into cholesterol in cultured human hepatoma (HEP-G2) cells; 0.046-0.17; format: functional, cell-based
HepG2 [8] = assay: Tested for ability to inhibit incorporation of [14C]acetate into cholesterol in cultured human hepatoma (HEP-G2) cells; 0.15-0.33; format: functional, cell-based
[9] = molecular target: T1, 3-hydroxy-3-methylglutaryl-coenzyme A reductase; assay: Inhibitory activity against partially purified rat liver HMG-CoA reductase in vitro; 0.73-10
HepG2 [10] = assay: Tested for ability to inhibit incorporation of [14C]acetate into cholesterol in cultured human hepatoma (HEP-G2) cells; 0.73-91; format: functional, cell-based
[11] = molecular target: T1, 3-hydroxy-3-methylglutaryl-coenzyme A reductase; assay: Inhibitory activity against partially purified rat liver HMG-CoA reductase in vitro; 0.12-0.21
HepG2 [12] = assay: Tested for ability to inhibit incorporation of [14C]acetate into cholesterol in cultured human hepatoma (HEP-G2) cells; 0.31-2.4; format: functional, cell-based
[13] = molecular target: T1, 3-hydroxy-3-methylglutaryl-coenzyme A reductase; assay: Inhibitory activity against partially purified rat liver HMG-CoA reductase in vitro; 2.1-54
[14] = molecular target: T1, 3-hydroxy-3-methylglutaryl-coenzyme A reductase; assay: Inhibitory activity against partially purified rat liver HMG-CoA reductase in vitro; 0.026-0.34
HepG2 [15] = assay: Tested for ability to inhibit incorporation of [14C]acetate into cholesterol in cultured human hepatoma (HEP-G2) cells; 0.16-0.68; format: functional, cell-based
[16] = molecular target: T1, 3-hydroxy-3-methylglutaryl-coenzyme A reductase; assay: Inhibitory activity against partially purified rat liver HMG-CoA reductase in vitro; 4.1-22
[17] = molecular target: T1, 3-hydroxy-3-methylglutaryl-coenzyme A reductase; assay: Inhibitory activity against partially purified rat liver HMG-CoA reductase in vitro; 3.8-19
[18] = molecular target: T1, 3-hydroxy-3-methylglutaryl-coenzyme A reductase; assay: Inhibitory activity against partially purified rat liver HMG-CoA reductase in vitro; 1.2-3.3
[19] = molecular target: T1, 3-hydroxy-3-methylglutaryl-coenzyme A reductase; assay: Inhibitory activity against partially purified rat liver HMG-CoA reductase in vitro; 1.9-5.3
[20] = molecular target: T1, 3-hydroxy-3-methylglutaryl-coenzyme A reductase; assay: Inhibitory activity against partially purified rat liver HMG-CoA reductase in vitro; 0.0015-0.0049
HepG2 [21] = assay: Tested for ability to inhibit incorporation of [14C]acetate into cholesterol in cultured human hepatoma (HEP-G2) cells; 0.013-0.81; format: functional, cell-based
HepG2 [22] = assay: Tested for ability to inhibit incorporation of [14C]acetate into cholesterol in cultured human hepatoma (HEP-G2) cells; 0.019-0.14; format: functional, cell-based
[23] = molecular target: T1, 3-hydroxy-3-methylglutaryl-coenzyme A reductase; assay: Inhibitory activity against partially purified rat liver HMG-CoA reductase in vitro; 0.0073-0.017

SMILES: O=C(O)C[C@H](O)C[C@H](O)/C=C/c1c2c(nn1-c1ccc(F)cc1)-c1ccccc1CCC2
- pIC50 [1]: 5.59

SMILES: O=C(O)C[C@H](O)C[C@H](O)/C=C/c1c2c(nn1-c1ccc(F)cc1)CCC2
- pIC50 [13]: 4.96

SMILES: O=C(O)C[C@H](O)C[C@H](O)/C=C/c1c2c(nn1-c1ccc(F)cc1)-c1ccccc1CC2
- pIC50 [16]: 5.03

SMILES: O=C(O)C[C@H](O)C[C@H](O)/C=C/c1c2c(nn1-c1ccc(F)cc1)C(C1CCCCC1)CCC2 (some centres undefined)
- pIC50 [17]: 5.07

SMILES: CCC1CCCc2c1nn(-c1ccc(F)cc1)c2/C=C/[C@@H](O)C[C@@H](O)CC(=O)O (some centres undefined)
- pIC50 [18]: 5.70

SMILES: CCC(C)C1CCCc2c1nn(-c1ccc(F)cc1)c2/C=C/[C@@H](O)C[C@@H](O)CC(=O)O (some centres undefined)
- pIC50 [19]: 5.49

SMILES: CC[C@H](C)C(=O)O[C@H]1C[C@@H](C)C=C2C=C[C@H](C)[C@H](CC[C@@H]3C[C@@H](O)CC(=O)O3)C21 (some centres undefined)
- pIC50 (HepG2 [22]): 7.30
- pIC50 [23]: 8.04

The remaining lines, values ahead:

- pIC50 (HepG2 [2]): 6.30
- pIC50 [3]: 7.55
SMILES: COc1ccc(CC2CCCc3c2nn(-c2ccc(F)cc2)c3/C=C/[C@@H](O)C[C@@H](O)CC(=O)O)cc1 (some centres undefined)

- pIC50 [4]: 7.55
- pIC50 (HepG2 [5]): 6.34
SMILES: O=C(O)C[C@H](O)C[C@H](O)/C=C/c1c2c(nn1-c1ccc(F)cc1)C(Cc1cccc3ccccc13)CCC2 (some centres undefined)

- pIC50 [6]: 7.85
- pIC50 (HepG2 [7]): 7.06
SMILES: CC(C)(C)c1ccc(CC2CCCc3c2nn(-c2ccc(F)cc2)c3/C=C/[C@@H](O)C[C@@H](O)CC(=O)O)cc1 (some centres undefined)

- pIC50 (HepG2 [8]): 6.64
- pIC50 [6]: 7.40
SMILES: CC(C)c1ccc(CC2CCCc3c2nn(-c2ccc(F)cc2)c3/C=C/[C@@H](O)C[C@@H](O)CC(=O)O)cc1 (some centres undefined)

- pIC50 [9]: 5.55
- pIC50 (HepG2 [10]): 5.09
SMILES: O=C(O)C[C@H](O)C[C@H](O)/C=C/c1c2c(nn1-c1ccc(F)cc1)C(c1ccccc1)CCC2 (some centres undefined)

- pIC50 [11]: 6.80
- pIC50 (HepG2 [12]): 6.06
SMILES: O=C(O)C[C@H](O)C[C@H](O)/C=C/c1c2c(nn1-c1ccc(F)cc1)C(CCCc1ccccc1)CCC2 (some centres undefined)

- pIC50 [14]: 7.02
- pIC50 (HepG2 [15]): 6.48
SMILES: O=C(O)C[C@H](O)C[C@H](O)/C=C/c1c2c(nn1-c1ccc(F)cc1)C(Cc1ccccc1Cl)CCC2 (some centres undefined)

- pIC50 [20]: 8.52
- pIC50 (HepG2 [21]): 7.00
SMILES: O=C(O)C[C@H](O)C[C@H](O)/C=C/c1c2c(nn1-c1ccc(F)cc1)C(Cc1ccc(-c3ccccc3)cc1)CCC2 (some centres undefined)

Reference: ChEMBL document CHEMBL1126959, “HMG-CoA reductase inhibitors: design, synthesis, and biological activity of tetrahydroindazole-substituted 3,5-dihydroxy-6-heptenoic acid sodium salts” (J Med Chem, 1993)
